# Source: article PMC3818959 (Journal of Ginseng Research, 2013)
# Target: KCNQ1 (IKs channel, KCNQ1 + KCNE1) (Homo sapiens, UniProt P51787)
# Assay: cell-based
# KCNQ1 (IKs channel, KCNQ1 + KCNE1), sequence (P51787 whole entry): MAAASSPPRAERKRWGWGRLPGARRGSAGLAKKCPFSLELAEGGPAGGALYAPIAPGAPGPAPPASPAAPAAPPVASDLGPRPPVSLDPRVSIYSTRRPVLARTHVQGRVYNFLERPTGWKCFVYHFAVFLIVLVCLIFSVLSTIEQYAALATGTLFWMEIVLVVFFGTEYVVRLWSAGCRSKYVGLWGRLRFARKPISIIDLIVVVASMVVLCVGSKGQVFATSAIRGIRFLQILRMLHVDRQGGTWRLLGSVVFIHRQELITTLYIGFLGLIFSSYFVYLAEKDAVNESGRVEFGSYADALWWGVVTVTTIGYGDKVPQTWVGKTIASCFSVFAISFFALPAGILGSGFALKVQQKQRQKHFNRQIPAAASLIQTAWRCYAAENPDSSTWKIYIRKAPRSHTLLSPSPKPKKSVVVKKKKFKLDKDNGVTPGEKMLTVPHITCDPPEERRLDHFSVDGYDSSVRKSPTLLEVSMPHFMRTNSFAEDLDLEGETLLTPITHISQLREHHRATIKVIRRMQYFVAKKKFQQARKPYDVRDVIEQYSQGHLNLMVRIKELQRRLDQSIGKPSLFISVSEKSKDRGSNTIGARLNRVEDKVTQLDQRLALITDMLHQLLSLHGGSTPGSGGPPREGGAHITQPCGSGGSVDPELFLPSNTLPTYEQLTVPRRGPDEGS
structure (smiles),measurement,value
"CC(C)=CCC[C@](C)(O)[C@H]1CC[C@]2(C)[C@@H]1[C@H](O)C[C@@H]1[C@@]3(C)CC[C@H](O)C(C)(C)[C@@H]3[C@@H](O)C[C@]12C [PPT, protopanaxatriol]",IC50,5.18 ± 0.13 µM
